Data as given in patent publication US20250339387A1, “MITOXANTHRONE DERIVATIVES AS RAS INHIBITORS” (KHR Biotec GmbH, priority 2022, published 2025).

Tests used:
Type in all cases: cell-based
[1] = test system: ASPC1 cells; assay: Soft agar colony formation assay with MTT readout; details: Homo sapiens, growth in soft agar, colonies stained with MTT, absorbance 570 nm, 3 independent experiments
Protocol: (§1) Metabolic activity was quantified using Cell Proliferation Kit I (Roche, Basel, Switzerland). Cells were seeded in 96-well cell culture plates, using 5000 cells per well for NCI-H358 cells. After treatment, 10 μl of MTT solution was added and incubated for 2 h in CO2 incubator. Then 100 μl of solubilization buffer was added to each well and incubated overnight in CO2 incubator. Cell viability, assessed by the amount of metabolized MTT, was quantified by measuring absorbance at 570 nm.
(§2) MTT assay for the growth of different tumor cell lines with RAS mutations in soft agar with Mitoxantrone hydrochloride. Shown are data from three independent experiments. NCI-H358, H358, H2122, ASPC-1, HCT-116, T24 and HT1080 cells were used for the soft agar colony formation assay. After the treatment with Mitoxantrone HCl, the colonies were stained with MTT and the value was quantified by measuring absorbance at 570 nm after solubilization. The results represent mean±SEM from 3 independent experiments.

[2] = test system: HCT-116 cells; assay: Soft agar colony formation assay with MTT readout; details: Homo sapiens, growth in soft agar, colonies stained with MTT, absorbance 570 nm, 3 independent experiments
Protocol: as §1, §2

[3] = test system: HT1080 cells; assay: Soft agar colony formation assay with MTT readout; details: Homo sapiens, HT-1080; growth in soft agar, colonies stained with MTT, absorbance 570 nm, 3 independent experiments
Protocol: as §1, §2

[4] = test system: NCI-H2122 cells; assay: Soft agar colony formation assay with MTT readout; details: Homo sapiens, growth in soft agar, colonies stained with MTT, absorbance 570 nm, 3 independent experiments
Protocol: as §1, §2

[5] = test system: NCI-H358 cells; assay: Soft agar colony formation assay with MTT readout; details: Homo sapiens, growth in soft agar, colonies stained with MTT, absorbance 570 nm, 3 independent experiments
Protocol: as §1, §2

[6] = test system: T24 cells; assay: Soft agar colony formation assay with MTT readout; details: Homo sapiens; growth in soft agar, colonies stained with MTT, absorbance 570 nm, 3 independent experiments
Protocol: as §1, §2

[7] = test system: BaF3 KRAS G12C cells; assay: MTT assay for cell viability in 96 well cell culture plate; details: Mus musculus, 48 h treatment
[8] = test system: BaF3 KRAS G12C/Y96D cells; assay: as above; details: Mus musculus, 48 h treatment
[9] = test system: sNF96.2 cells; assay: RASOpathie-Model, MTT assay for cell viability in 96 well cell culture plate; details: 48 h treatment
Protocol: FIG. 5: RASOpathie-Model of Mitoxantrone HCl; MTT assay for cell viability in 96 well cell culture plate
Cells were treated with Mitoxantrone HCl for 48 h and cell viability was evaluated by MTT assay. DMSO-treated cells were set as 1. The results shown are mean±SEM from 3 independent experiments.

[10] = target: T1, HRAS G12V (Homo sapiens, UniProt P01112, G12V); assay: NanoBit assay for RAS activation (LgBiT-RAS / SmBiT-CRAF RBD); details: 2 h with inhibitor in serum free DMEM
T1 construct: K, N and HRAS G12V (full length) was cloned with Xho I and Bgl Ito LgBit; expressed in transfected cells
Protocol: (§3) N-terminal LgBiT and C-terminal SmBiT construct was purchased from Promega and K, N and HRAS G12V (full length) was cloned with Xho I and Bgl Ito LgBit and CRAF Ras binding domain (1-149) was cloned with EcoRI and Bgl II to SmBit. For transfections, 1 μg or 2 μg of (12 well/6 well) plasmids were transfected into cells with 0.5 mM of PEI reagent in 100 μl or 200 μl PBS. One day after transfection, cells were harvested and seeded into 96 well white plates, half area (Greiner). After an additional day the medium was changed to serum free DMEM and the cells were incubated for 2 h with inhibitor. NanoGlo assay was performed according to the manufacturer's instructions. The luminescence was measured using Tecan infinite (Tecan).

[11] = target: T2, KRAS G12V (Homo sapiens, UniProt P01116, G12V); assay: as above; details: 2 h with inhibitor in serum free DMEM
T2 construct: K, N and HRAS G12V (full length) was cloned with Xho I and Bgl Ito LgBit; expressed in transfected cells
Protocol: as §3

[12] = target: T3, NRAS G12V (Homo sapiens, UniProt P01111, G12V); assay: as above; details: 2 h with inhibitor in serum free DMEM
T3 construct: K, N and HRAS G12V (full length) was cloned with Xho I and Bgl Ito LgBit; expressed in transfected cells
Protocol: as §3

[13] = test system: KRAS mutants (G12V, G12C, G12D, G12C/Y96D, G13C, G13D, G13S, Q61K and Q61R); assay: NanoBiT assay for RAS GTP-loading in HeLa cells, LgBit-KRAS mutants and SmBit-CRAF-RBD; details: 2 h in serum-free DMEM, normalized to DMSO
Protocol: NanoBiT assay for the RAS GTP-loading was performed in HeLa cells transfected with LgBit-KRAS mutants and SmBit-CRAF-RBD. Cells were treated with Mitoxantrone HCl for 2 h in serum-free DMEM. After incubation, the substrate for NanoLuc was added, and the luminescence was measured in a multiplate reader. Data were normalized to cells transfected with the indicated mutant and exposed to DMSO for 2 h. DMSO-treated cells were set as 1. The bars represent mean±SEM from 3 independent experiments.

T3 sequence (P01111 whole entry G12V): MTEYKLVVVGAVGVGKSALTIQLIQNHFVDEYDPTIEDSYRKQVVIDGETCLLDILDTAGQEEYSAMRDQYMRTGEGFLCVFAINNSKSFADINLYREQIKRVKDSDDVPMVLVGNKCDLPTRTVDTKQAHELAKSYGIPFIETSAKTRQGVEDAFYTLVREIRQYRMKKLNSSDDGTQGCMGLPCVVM

`Cl.Cl.O=C1c2c(O)ccc(O)c2C(=O)c2c(NCCNCCO)ccc(NCCNCCO)c21` [Mitoxantrone HCl, 1,4-dihydroxy-5,8-bis({2-[(2-hydroxy-ethyl)amino]ethyl}amino)-9,10-anthrachinone dihydrochloride] gave an IC50 [1] of 0.6 µM, an IC50 [2] of 0.27 µM and an IC50 [3] of 0.13 µM. The IC50 [4] was 0.25 µM, the IC50 [5] was 1.5 µM and the IC50 [6] was 0.43 µM. It also gave an IC50 [7] of 24.2 µM, an IC50 [8] of 24 µM and an IC50 [9] of 3.71 µM. The “RAS activation, H-RAS (NanoBit luminescence)” value [10] was “inhibits”, the “RAS activation, K-RAS (NanoBit luminescence)” value [11] was “inhibits” and the “RAS activation, N-RAS (NanoBit luminescence)” value [12] was “inhibits”. For the same molecule, the “RAS activation / GTP-loading of KRAS mutants (NanoBiT luminescence)” value [13] was “inhibits”.
